Measured values from US20220055989A1, “CONDENSED PYRROLES AS NOVEL BROMODOMAIN INHIBITORS” (ALBERT LUDWING UNIVERSITÄT FREIBURG, priority 2018, published 2022).

Key:
BRD4(1) [1] = biological target: T1, BRD4(1) (Homo sapiens, UniProt O60885); assay: Isothermal titration calorimetry, dissociation constant KD BRD4(1); assay type: binding
T1 construct: BRD4-BD1 was expressed and purified as described previously; made in house
Experimental: BRD4-BD1 was expressed and purified as described previously (Filippakopoulos et al, (2012), Cell 149(1): […]) with the exception of the final buffer for crystallization and ITC analysis (20 mM Hepes/NaOH pH 7.5, 150 mM NaCl). Crystals were grown in the presence of 3.5 M Na-Formate (pH 7.5) at a protein concentration of 10 mg/ml and a ligand concentration of 2 mM added directly to the protein prior to crystallization from a 100 mM stock solution in DMSO. Data were collected at 100K using either a Rigaku HF-007 rotating anode X-ray generator equipped with VariMaxHF optics and a Saturn944 CCD detector or a mar345 image plate respectively at λ=1.54179 Å or at the PXI beamline at the Swiss Light Source at λ=1.000 Å with a Pilatus detector. Data processing and reduction was done with iMOSFLM (Leslie AGW PH (2007), Evolving Methods for Macromolecular Crystallography 245, 41.51), POINTLESS, and SCALA (Kabsch W (2010) Xds. Acta crystallographica. Section D, Biological crystallography 66(Pt 2):125-132; Bruker (2008) SADABS, SAINT and XPREP (Bruker AXS Inc., Madison, Wis., USA); Collaborative Computational Project N (1994) The CCP4 suite: programs for protein crystallography, Acta crystallographica, Section D, Biological crystallography 50(Pt 5):760-763), or with XDS, XSCALE, XDSCONV (Evans P (2006), Scaling and assessment of data quality, Acta crystallographica, Section D, Biological crystallography 62(Pt 1):72-82), and XPREP (Evans P R (2011), An introduction to data reduction: space-group determination, scaling and intensity statistics, Acta crystallographica, Section D, Biological crystallography 67(Pt 4):282-292).
Data were obtained in discrete titration experiments with an injection volume of 12 μl per injection. Subsequently, the heats per injection were calculated as integrals and after normalization against the molar concentrations plotted against the molar ratio as implemented in Microcal Origin. Finally, data were fitted according to a single set of sites binding model with
The dissociation constant Kd, is commonly used to describe the affinity between a ligand L and a protein, i.e. how tightly a ligand binds to a particular protein. The dissociation constant has molar units which correspond to the concentration of ligand at which the binding site on a particular protein is half occupied, i.e. the concentration of the ligand at which the concentration of protein with ligand bound equals the concentration of protein with no ligand bound. The smaller the dissociation constant, the higher the affinity between ligand and protein.

BRPF1B = biological target: T2, BRPF1B (Homo sapiens, UniProt P55201); assay: Dissociation constant KD BRPF1B; assay type: binding
T2 construct: dissociation constants KD for two bromodomains (BRD4(1) and BRPF1B)
T2 sequence (P55201 628-732 limits assumed): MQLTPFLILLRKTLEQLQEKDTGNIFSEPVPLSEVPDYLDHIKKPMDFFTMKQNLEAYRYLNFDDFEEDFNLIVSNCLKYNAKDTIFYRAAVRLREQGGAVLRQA

CECR2 = biological target: T3, CECR2 (Homo sapiens, UniProt Q9BXF3); assay: BROMOscan Kd determination CECR2; assay type: binding
T3 construct: T7 phage strains displaying bromodomains were grown; host or cells: T7 phage in E. coli derived from BL21
T3 sequence (Q9BXF3 434-538 limits assumed): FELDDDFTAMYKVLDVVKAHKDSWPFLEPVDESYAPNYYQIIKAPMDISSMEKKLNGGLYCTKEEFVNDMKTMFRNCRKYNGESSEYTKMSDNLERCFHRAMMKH
Experimental: (§1) Bromodomain profiling was carried out on the basis of BROMOscan™. This platform accounted for the indirect determination of the dissociation constants between 19 bromodomains and the compound of formula (13), by binding competition against a reference immobilized ligand. Compounds that bind the bromodomain prevent its binding to the immobilized ligand thus reducing the amount of protein captured. […] Hits are identified by measuring the amount of bromodomain captured in test versus control samples. Bromodomain assays for Kd determination: T7 phage strains displaying bromodomains were grown in parallel in 24-well blocks in an E. coli host derived from the BL21 strain. E. coli were grown to log-phase and infected with T7 phage from a frozen stock (multiplicity of infection=0.4) and incubated with shaking at 32° C. until lysis (90-150 minutes). The lysates were centrifuged (5,000×g) and filtered (0.2 μm) to remove cell debris. […] The liganded beads were blocked with excess biotin and washed with blocking buffer (SeaBlock (Pierce), 1% BSA, 0.05% Tween 20, 1 mM DTT) to remove unbound ligand and to reduce non-specific phage binding. […] Test compounds were prepared as 1000× stocks in 100% DMSO. Kds were determined using an 11-point 3-fold compound dilution series with one DMSO control point. All compounds for Kd measurements are distributed by acoustic transfer (non-contact dispensing) in 100% DMSO. The compounds were then diluted directly into the assays such that the final concentration of DMSO was 0.09%. All reactions performed in polypropylene 384-well plates. Each was a final volume of 0.02 ml. […] The bromodomain concentration in the eluates was measured by qPCR. […] All compounds for Kd measurements are distributed by acoustic transfer (non-contact dispensing) in 100% DMSO. The compounds were then diluted directly into the assays such that the final concentration of DMSO was 0.09%. Most Kds were determined using a compound top concentration=10,000 nM. If the initial Kd determined was <0.169 nM (the lowest concentration tested), the measurement was repeated with a serial dilution starting at a lower top concentration. Binding Constants (Kds): Binding constants (Kds) were calculated with a standard dose-response curve using the Hill equation: The Hill Slope was set to −1. Curves were fitted using a non-linear least square fit with the Levenberg-Marquardt algorithm.

BRPF1 = biological target: T4, BRPF1 (Homo sapiens, UniProt P55201); assay: BROMOscan Kd determination BRPF1; assay type: binding
T4 construct: T7 phage strains displaying bromodomains were grown; host or cells: T7 phage in E. coli derived from BL21
T4 sequence (P55201 628-732 limits assumed): T2 sequence (P55201 628-732 limits assumed)
Experimental: as §1

HL-60 cells = assay: GI50 in a culture of HL-60 cells; assay type: cell-based; details: concentration required to reduce the population of a culture of HL-60 cells by 50%
BRD9 = biological target: T5, BRD9 (Homo sapiens, UniProt Q9H8M2); assay: BROMOscan Kd determination BRD9; assay type: binding
T5 construct: T7 phage strains displaying bromodomains were grown; host or cells: T7 phage in E. coli derived from BL21
T5 sequence (Q9H8M2 136-240 limits assumed): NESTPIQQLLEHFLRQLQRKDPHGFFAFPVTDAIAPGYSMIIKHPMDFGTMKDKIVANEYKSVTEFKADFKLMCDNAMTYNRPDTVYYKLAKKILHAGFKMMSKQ
Experimental: as §1

EP300 = biological target: T6, EP300 (Homo sapiens, UniProt Q09472); assay: BROMOscan Kd determination EP300; assay type: binding
T6 construct: T7 phage strains displaying bromodomains were grown; host or cells: T7 phage in E. coli derived from BL21
T6 sequence (Q09472 1049-1156 limits assumed): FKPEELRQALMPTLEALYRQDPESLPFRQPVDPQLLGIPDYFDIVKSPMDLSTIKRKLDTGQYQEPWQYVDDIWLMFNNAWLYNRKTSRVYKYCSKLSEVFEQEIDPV
Experimental: as §1

BRD7 = biological target: T7, BRD7 (Homo sapiens, UniProt Q9NPI1); assay: BROMOscan Kd determination BRD7; assay type: binding
T7 construct: T7 phage strains displaying bromodomains were grown; host or cells: T7 phage in E. coli derived from BL21
T7 sequence (Q9NPI1 131-235 limits assumed): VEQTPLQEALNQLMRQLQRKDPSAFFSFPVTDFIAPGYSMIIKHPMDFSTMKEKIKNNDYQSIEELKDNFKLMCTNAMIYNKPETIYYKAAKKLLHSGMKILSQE
Experimental: as §1

BRD4(1) [2] = biological target: T1, BRD4(1); assay: BROMOscan Kd determination BRD4(1); assay type: binding
Experimental: as §1

P. falciparum cultures = assay: Plasmodium falciparum inhibitor treatment for 72 hours, parasitemia by flow cytometry; assay type: cell-based; details: 100 μm of compound, vs DMSO control, early ring, mid trophozoite and schizont stages
Experimental: Plasmodium falciparum Inhibitor Treatment for 72 Hours (One Replication Cycle) P. falciparum cultures were treated for 72 hours with 100 μm of compounds (19) to (22), (24) and (25) or DMSO as control. The cultures were stained for DNA content with fluorescent dye Hoechst 33342 (20 μm) and for RNA content with thiazole orange (1 μm). The double negative population represented uninfected erythrocytes (devoid of DNA and low in RNA content) whereas the P. falciparum infected erythrocytes were gated as early ring, mid trophozoite and late schizont stages based on their DNA and RNA content.

SMILES	Kd (BRD4(1) [1]) [nM]	Kd (BRPF1B) [nM]	Kd (CECR2) [nM]	Kd (BRPF1) [nM]	Kd (BRD9) [nM]	Kd (EP300) [nM]	Kd (BRD7) [nM]	Kd (BRD4(1) [2]) [nM]	further results
CNC(=O)c1[nH]c(C)c2c1CCCCC2=O [1″]	6410	5080							
CCOC(=O)c1[nH]c(C)c2c1CCCCC2=O [Compound 8, Ethyl 3-methyl-4-oxo-2,4,5,6,7,8-hexahydrocyclohepta[c]pyrrole-1-carboxylate]	4560	1050							
CCOC(=O)c1[nH]c(C)c2c1CCC=CC2=O [Compound 9, Ethyl 3-methyl-4-oxo-2,4,7,8-tetrahydrocyclohepta[c]pyrrole-1-carboxylate]	8280	2050							
CCN(CC)S(=O)(=O)c1ccc(OC)c(NC(=O)c2[nH]c(C)c3c2CCCCC3=O)c1 [Compound 11, N-(5-(N,N-diethylsulfamoyl)-2-methoxyphenyl)-3-methyl-4-oxo-2,4,5,6,7,8-hexahydrocyclohepta[c]pyrrole-1-carboxamide]	144		1100	420	160	2100	250	85	GI50HL60 (HL-60 cells): 1360 nM
COc1ccc(S(=O)(=O)N2CCCCCC2)cc1NC(=O)c1[nH]c(C)c2c1CCCCC2=O [Compound 12, N-(5-(azepan-1-ylsulfonyl)-2-methoxyphenyl)-3-methyl-4-oxo-2,4,5,6,7,8-hexahydrocyclohepta[c]pyrrole-1-carboxamide]	177		8100	2500	530	9000	310	170	GI50HL60 (HL-60 cells): 570 nM
COc1ccc(S(=O)(=O)N2CCN(C)CC2)cc1NC(=O)c1[nH]c(C)c2c1CCCCC2=O [Compound 14]	260		240	320	68	1800	160	300	GI50HL60 (HL-60 cells): 2080 nM
COc1ccc(S(=O)(=O)N2CCCCC2)cc1NC(=O)c1[nH]c(C)c2c1CCCCC2=O [Compound 15]	47.3		580	1800	300	3500	440	82	
COc1ccc(S(=O)(=O)N2CC3(COC3)C2)cc1NC(=O)c1[nH]c(C)c2c1CCCCC2=O [Compound 16]	417		760	1300	4.3	990	5.5	150	
CCN(CC)S(=O)(=O)c1ccc(O)c(NC(=O)c2[nH]c(C)c3c2CCCCC3=O)c1 [Compound 18]	72.2								
Cc1[nH]c(-c2cccc(O)c2)c2c1C(=O)CCCC2 [Compound 19]		910							
Cc1[nH]c(-c2cccc(N)c2)c2c1C(=O)CCCC2 [Compound 20]		567							
Cc1[nH]c(-c2ccccc2)c2c1C(=O)CCCC2 [Compound 21]		1990							
Cc1noc(-c2[nH]c(C)c3c2CCCCC3=O)n1 [Compound 22]		2310							
Cc1[nH]c(-c2ccc3cc[nH]c3c2)c2c1C(=O)CCCC2 [Compound 24, 1-(1H-indol-6-yl)-3-methyl-5,6,7,8-tetrahydrocyclohepta[c]pyrrol-4(2H)-one]		639							degree of parasitemia (P. falciparum cultures): particularly effective
Cc1[nH]c(-c2cccc(C(N)=O)c2)c2c1C(=O)CCCC2 [Compound 25]		713							
